Results taken from patent publication US6413911B1, “Herbicidal sulfonylureas, their preparation and use” (BASF Aktiengesellschaft, priority 1992, dated 2002).
Each block holds one molecule with its values, some of them ahead of it.

Legend:
Galium aparine = test: greenhouse test, post-emergence herbicidal activity; assay type: in vivo
Excerpt: (§1) The cultivation containers used were plastic flowerpots containing loamy sand with about 3.0% humus as a substrate. The seeds of the test plants were sown separately according to species. For the purpose of post-emergence treatment, the test plants were first raised, depending on growth form, to a growth height of from 4 to 15 cm and only then treated with the active compounds suspended or emulsified in water. To do this, the test plants were either directly sown and raised in the same containers or they were first raised separately as seed plants and transplanted into the test containers a few days before the treatment. The application rate for post-emergence treatment was 0.06 kg/ha of a.s. (active substance). The plants were kept in a species-specific manner at 10-25° C. or 20-35° C. The test period extended over 2 to 4 weeks. During this time the plants were tended and their reaction to the individual treatments was assessed. Assessment was carried out on a scale of from 0 to 100. 100 here means no germination of the plants or complete destruction of at least the above-ground parts and 0 means no damage or normal course of growth. Comparison of the herbicidal activity of the exemplary compound No. 1.03 with the known comparison compound B on post-emergence application of 0.0313 or 0.0156 kg/ha of a.s. respectively in the greenhouse. Comparison of the herbicidal activity of the exemplary compound No. 3.01 with the known comparison compound H on post-emergence application of 0.063 or 0.0313 kg/ha of a.s. respectively in the greenhouse.

Sinapis alba = test: as above; assay type: in vivo
Excerpt: as §1

Solanum nigrum = test: as above; assay type: in vivo; conditions: scale 0-100, Table I
Excerpt: as §1, with “greenhouse.” for “greenhouse. Comparison of the herbicidal activity of the exemplary compound No. 3.01 with the known comparison compound H on post-emergence application of 0.063 or 0.0313 kg/ha of a.s. respectively in the greenhouse.”

Polygonum persicaria = test: as above; assay type: in vivo; conditions: scale 0-100, Table I
Excerpt: as §1, with “greenhouse.” for “greenhouse. Comparison of the herbicidal activity of the exemplary compound No. 3.01 with the known comparison compound H on post-emergence application of 0.063 or 0.0313 kg/ha of a.s. respectively in the greenhouse.”

Veronica spp. = test: as above; assay type: in vivo; conditions: scale 0-100, Table I
Excerpt: as §1, with “greenhouse.” for “greenhouse. Comparison of the herbicidal activity of the exemplary compound No. 3.01 with the known comparison compound H on post-emergence application of 0.063 or 0.0313 kg/ha of a.s. respectively in the greenhouse.”

Amaranthus retroflexus = test: as above; assay type: in vivo; conditions: scale 0-100, Table I
Excerpt: as §1, with “greenhouse.” for “greenhouse. Comparison of the herbicidal activity of the exemplary compound No. 3.01 with the known comparison compound H on post-emergence application of 0.063 or 0.0313 kg/ha of a.s. respectively in the greenhouse.”

[1] = test system: broad-leaved undesired plants; test: greenhouse test, post-emergence control of broad-leaved undesired plants; assay type: in vivo, Abutilon theophrasti; Sinapis alba; conditions: 0.06 kg/ha of a.s. post-emergence
Excerpt: as §1, with “The plants used in the greenhouse tests were composed” for “Comparison”, “following species: [table]” for “herbicidal activity of the exemplary compound No. 1.03 with the known comparison compound B on post-emergence application of 0.0313 or 0.0156 kg/ha of a.s. respectively in the greenhouse. Comparison of the herbicidal activity of the exemplary compound No. 3.01 with the known comparison compound H on post-emergence application of 0.063 or 0.0313 kg/ha of a.s. respectively in the greenhouse.”

maize = test: greenhouse test, post-emergence selectivity in crop plant maize; assay type: in vivo, Zea mays; conditions: 0.06 kg/ha of a.s. post-emergence
Excerpt: as §1, with “The plants used in the greenhouse tests were composed” for “Comparison”, “following species: [table]” for “herbicidal activity of the exemplary compound No. 1.03 with the known comparison compound B on post-emergence application of 0.0313 or 0.0156 kg/ha of a.s. respectively in the greenhouse. Comparison of the herbicidal activity of the exemplary compound No. 3.01 with the known comparison compound H on post-emergence application of 0.063 or 0.0313 kg/ha of a.s. respectively in the greenhouse.”

Triticum aestivum = test: greenhouse test, post-emergence damage to crop plant; assay type: in vivo; conditions: scale 0-100, Table II
Excerpt: as §1, with “No.” for “No. 1.03 with the known comparison compound B on post-emergence application of 0.0313 or 0.0156 kg/ha of a.s. respectively in the greenhouse. Comparison of the herbicidal activity of the exemplary compound No.”

Alopecurus myosuroides = test: greenhouse test, post-emergence herbicidal activity; assay type: in vivo; conditions: scale 0-100, Table II
Excerpt: as §1, with “No.” for “No. 1.03 with the known comparison compound B on post-emergence application of 0.0313 or 0.0156 kg/ha of a.s. respectively in the greenhouse. Comparison of the herbicidal activity of the exemplary compound No.”

Ipoinea spp. = test: as above; assay type: in vivo; conditions: scale 0-100, Table II
Excerpt: as §1, with “No.” for “No. 1.03 with the known comparison compound B on post-emergence application of 0.0313 or 0.0156 kg/ha of a.s. respectively in the greenhouse. Comparison of the herbicidal activity of the exemplary compound No.”

[2] = 0.0156 kg/ha of a.s., scale 0-100, Table I
[3] = 0.0313 kg/ha of a.s., scale 0-100, Table I
[4] = 0.0313 kg/ha of a.s., scale 0-100, Table II
[5] = 0.063 kg/ha of a.s., scale 0-100, Table II

selectivity in the exemplary crop plant maize (maize): outstanding selectivity
SMILES: COC(=O)c1ccccc1S(=O)(=O)NC(=O)Nc1nc(OC)nc(C(F)(F)Cl)n1 [Example 1.03]
Damage [%] (Galium aparine; [2]): 75%
Damage [%] (Galium aparine; [3]): 95%
Damage [%] (Sinapis alba; [2]): 90%
Damage [%] (Sinapis alba; [3]): 90%
Damage [%] (Solanum nigrum; 0.0156 kg/ha of a.s.): 90%
Damage [%] (Solanum nigrum; 0.0313 kg/ha of a.s.): 90%
Damage [%] (Polygonum persicaria; 0.0156 kg/ha of a.s.): 80%
Damage [%] (Polygonum persicaria; 0.0313 kg/ha of a.s.): 80%
Damage [%] (Veronica spp.; 0.0156 kg/ha of a.s.): 75%
Damage [%] (Veronica spp.; 0.0313 kg/ha of a.s.): 85%
Damage [%] (Amaranthus retroflexus; 0.0156 kg/ha of a.s.): 100%
Damage [%] (Amaranthus retroflexus; 0.0313 kg/ha of a.s.): 100%
control of broad-leaved undesired plants [1]: very well controlled

SMILES: COc1nc(NC(=O)NS(=O)(=O)c2ccccc2C(F)(F)F)nc(C(F)F)n1 [Example 3.01]
Damage [%] (Triticum aestivum; 0.0313 kg/ha of a.s.): 0%
Damage [%] (Triticum aestivum; 0.063 kg/ha of a.s.): 0%
Damage [%] (Galium aparine; [4]): 95%
Damage [%] (Galium aparine; [5]): 95%
Damage [%] (Sinapis alba; [4]): 98%
Damage [%] (Sinapis alba; [5]): 98%
Damage [%] (Alopecurus myosuroides; 0.0313 kg/ha of a.s.): 98%
Damage [%] (Alopecurus myosuroides; 0.063 kg/ha of a.s.): 98%
Damage [%] (Ipoinea spp.; 0.0313 kg/ha of a.s.): 90%
Damage [%] (Ipoinea spp.; 0.063 kg/ha of a.s.): 98%
